The text below walks through data of patent publication US10793625B2, “Compositions and methods for treating or preventing osteoarthritis” (THE JOHNS HOPKINS UNIVERSITY, priority 2012, dated 2020).

Series [1] deals with 9-month-old ACLT mice. Briefly: ACLT or sham surgery in 9 month old mice treated with TβRI inhibitor. It counts as in vivo, mouse. As to conditions: for articular cartilage degeneration / subchondral bone structure / architecture: 1 mg/kg daily for 1 month. The protocol: (FIG. 12A) Safranin O staining of tibia articular cartilage and subchondral bone of mice sacrificed at 0, 14, 30, and 60 days post sham or ACLT surgery and treated with either vehicle or TβRI inhibitor (SB505124-1 mg/kg) daily beginning 3 days post-surgery for 1 month. For those mice analyzed at earlier time points, the mice were treated until sacrificed. (FIG. 12B) 3D μCT images of subchondral bone of knee joints. The sham operated mice maintained articular cartilage and subchondral bone structure throughout the duration of the experiment. […] (FIG. 12C) OARSI score based on the histology analysis. Quantitative analysis of structural parameters by μCT analysis: (FIG. 12D) thickness of subchondral bone plate (SBP) and (FIG. 12E) trabecular pattern factor (Tb. Pf). […] Ve-Sham: vehicle treated in sham operated; In-Sham: TβRI inhibitor treat in sham operated; Ve-ACLT: vehicle treated in ACLT operated; In-ACLT: TβRI inhibitor treated in ACLT operated mice.
Histochemistry, Immunohistochemistry and Histomorphometry. […] Immunostaining was performed using standard protocol. […] We calculated OARSI scores as previously described.
Micro-Computed Tomography (μCT). […] Th: trabecular thickness, Tb. Sp: trabecular separation, SMI, Conn. Dn: connectivity density, and Tb.Pf: trabecular pattern factor.

Series [2] has as its system Dunkin Hartley guinea pig spontaneous osteoarthritis. Nature of the series: Dunkin Hartley guinea pig spontaneous osteoarthritis, MRI of knee joints. The conditions noted are these: injected for 3 months. The class given is in vivo. The source says: (FIG. 16A) MRI scanning of knee joints of the guinea pig with different dose of TβRI inhibitor or vehicle treatment for 3 months. Red arrows pointing the bone marrow lesions in the subchondral bone of distal femur (upper row) or tibiae plateau (lower row). (FIG. 16B) Quantitative analysis of the bone marrow lesion intensity.

The subject of series [3] is Nestin-Cre™ER::Rosa26-LacZ^fl/fl mice. Briefly: β-gal and osteocalcin co-staining in subchondral bone of Nestin-CreER::Rosa26-LacZfl/fl ACLT mice. It counts as in vivo, mouse. From the text: We purchased Nestin-Cre™ER and (ROSA)26Sortm1Sor/J mice from the Jackson Laboratory. Floxed type II TGF-β receptor (TβRII^fl/fl) mice were obtained from Dr. Moses' lab. Nestin-Cre™ER mice were crossed with TβRII^fl/fl mice. The offspring were intercrossed to generate the following offspring: nestin-Cre™ER::TβRII^fl/fl, in which Cre was fused with a mutated estrogen receptor that could be activated by Tamoxifen. We determined the genotype of transgenic mice by PCR analyses of genomic DNA isolated from mouse tails. Genotyping for the Cre transgene was performed by PCR with the primers Cre 5′ (5′-CAAATAGCCCTGGCAGAT-3′) and Cre 3′ (5′-[…]-3′). The loxP TβRII allele was identified with the primerslox1F (5′-[…]-3′) and lox1R (5′-[…]-3′). We generated Nestin-Cre™ER::Rosa26-LacZ^fl/fl mice by crossing nestin-Cre™ER mice with mice homozygous with a loxP-flanked DNA STOP sequence preventing expression of the downstream lacZ gene. The offspring were then intercrossed to generate the following genotype: Nestin-Cre™ER::Rosa26-LacZ^fl/fl. We performed sham or ACLT operations on two month-old, male WT, Nestin-Cre™ER::TβRII^fl/fl and Nestin-Cre™ER::Rosa26-lacZ^fl/fl male mice. […]
Histochemistry, Immunohistochemistry and Histomorphometry. […] We calculated OARSI scores as previously described.

Series [4] relates to ACLT mice.
From the text: Mice. We purchased C57BL/6J (wild type) mice from Charles River. We anesthetized two months old male mice with ketamine and xylazine and then transected the anterior cruciate ligament surgically to induce mechanical instability associated osteoarthritis on the right knee. Sham operations were done on independent mice. For the time-course experiment, operated animals were euthanized at 0, 14, 30, 60 and 90 days post-surgery, n=8-12. For the dosage screening experiment, 2-month-old sham and ACLT-operated mice were assigned into 6 groups, n=10 per group. Beginning three days after surgery, we injected either different doses (0.1, 0.5, 1, 2.5, and 5 mg kg^−1) of TβRI inhibitor (SB505124, Sigma Aldrich) or the equivalent volume of vehicle (DMSO+PBS) intra-peritoneally daily for 30 days. Mice were euthanized 30 and 60 days post-surgery.
Histochemistry, Immunohistochemistry and Histomorphometry. At the time of sacrifice, we resected and fixed the knee joints in 10% buffered formalin for 48 hours, decalcified in 10% ethylenediamine tetraacetic acid (pH 7.4) for 21 days and embedded in paraffin or O.C.T. compound (Sakura Finetek). Four-μm-thick sagittal oriented sections of the knee joint medial compartment were processed for hematoxylin and eosin and sanfranin O-Fast green staining. Tartrate resistant acid phosphatase staining was performed using standard protocol (Sigma-Aldrich). Immunostaining was performed using standard protocol. We incubated sections with primary antibodies to mouse Nestin (Ayes Labs, Inc., 1:300), Osterix (Abeam, 1:600), Osteocalcin (Takara bio 1:200), p-Smad2/3 (Santa Cruz Biotechnology Inc., 1:50), p-Smad1/5 (Abcam, 1:50), ALK1 (Santa Cruz Biotechnology Inc., 1:50), ALK5 (Abeam, 1:50), CD31 (Abeam, 1:100), MMP13 (Abeam, 1:40), and Collagen X (Abeam, (1:80) overnight at 4° C. For immunohistochemical staining, a horse radish peroxidase-streptavidin detection system (Dako) was subsequently used to detect the immunoactivity followed by counterstaining with hematoxylin (Dako). For immunofluorescent staining, secondary antibodies conjugated with fluorescence were added and slides were incubated at room temperature for 1 hour while avoiding light. We microphotographed sections to perform histomorphometric measurements on the entire area of the tibia subchondral bone (Olympus DP71). Quantitative histomorphometric analysis was conducted in a blinded fashion with OsteoMeasureXP Software (OsteoMetrics, Inc). To label mineralization deposition, sequential subcutaneous injections of 1% calcein (Sigma, 15 mg kg^−1) and 3% xylenol orange (Sigma, 90 mg kg^−1) in 2% sodium bicarbonate solution was performed. Calcein and xylenol orange were injected 10 days and 2 days respectively before the mice were sacrificed. We counted the number of positively stained cells in whole tibia subchondral bone area per specimen, in five sequential sections per mouse in each group. We calculated OARSI scores as previously described.
Flow cytometry. We divided C57/B16 mice into 3 groups (n=10 per group): sham operation with vehicle treatment, ACLT with vehicle treatment and ACLT with TβRI inhibitor (SB505124) treatment. One month after surgery, we sacrificed mice and pooled tibia subchondral bone marrow cells from each group together. Red blood cells were lysed by commercial ACK lysis buffer (Quality Biological, Inc.). After centrifugation, the cell pellet was resuspended and fixed in 4% paraformaldehyde. We then washed cells with 0.1% bovine serum albumin (BSA) in PBS and counted them. 1×10^6 cells per milliliter were permeabilized in 0.1% Triton X-100 prior to blocking in 3% FACS buffer (PBS, 3% FBS, 0.1% NaN3 sodium azide) for 30 min on ice. We incubated the cells with Alexa Fluor 647-conjugated Nestin antibody (BD Pharmingen), anti-Osterix (Abeam, 1:400) or isotype control for 1 hour at 37° C. in dark room, and then washed twice with 0.1% BSA in PBS.
For series [5], the system named is active TGF-β1. As to conditions: injection; cited from earlier work.
The test system of series [6] is MSCs. Briefly: Western blot of Smad phosphorylation in cultured MSCs treated with recombinant hTGF-β1. The class given is cell-based, mouse. The protocol:
Cell Culture. We obtained green fluorescent protein (GFP)-labeled mouse adult MSCs from the Texas A&M Health Science Center College of Medicine Institute (College Station). We maintained cells (Passage 3-5) Iscove's modified Dulbecco's medium (Invitrogen) supplemented with 10% fetal calf serum (Atlanta Biologicals), 10% horse serum (Thermo Scientific), and (% penicillin-streptomycin (Mediatech). We cultured MSCs in 6-well plates at a density of 1.8×10^5 cells per well, then starved them for 6 h followed by TGF-β1 (R&D Systems) and TβRI inhibitor (SB-505124) (Sigma-Aldrich) treatment as indicated.
ELISA and Western Blot, We determined the concentration of active TGF-β1 in the conditioned media by the ELISA Development kit (R&D Systems) according to the manufacturer's instructions. Western blot analyses were conducted on the protein of lysates from in vitro cultured MSCs. The cell lysates were centrifuged and the supernatants were separated by SDS-PAGE and blotted on polyvinylidene fluoride membrane (Bio-Rad Laboratories). Following incubation in specific antibodies, we detected proteins using an enhanced chemiluminescence kit (Amersham Biosciences). […]

[7] abbreviates: 9 month old ACLT mice, listed as WI inhibitor, 1 mg/kg.

Where two headings read alike, the source gives them in different places.

With `Cc1cccc(-c2[nH]c(C(C)(C)C)nc2-c2ccc3c(c2)OCO3)n1` [TβRI inhibitor], the articular cartilage degeneration result in series [1] (9 month old ACLT mice, 1 mg/kg) is recorded as “attenuated the articular cartilage degeneration”; in series [1] (setting [7]), “attenuated”. Also, the “subchondral bone structure / architecture” value is on record as “improved subchondral bone architecture” in series [1] (9 month old ACLT mice, 1 mg/kg) and “improved” in series [1] (setting [7]). The “trabecular pattern factor (Tb. Pf), μCT” value is “decreased the trabecular pattern factor” in series [1] (9 month old ACLT mice, 1 and 2 months post ACLT, relative to ACLT-Vehicle); “decrease in Tb. Pf” in series [4] (1 mg kg^−1); “decreased Tb. Pf” in series [4] (high doses 1, 2.5 and 5 mg/kg). The “thickness of subchondral bone plate (SBP), μCT” value is “remained normal” in series [1] (9 month old ACLT mice, 1 month post-surgery, compared to sham-operated controls) and “maintenance of the thickness of SBP” in series [4] (1 mg kg^−1). Moreover, the “effect on articular cartilage” value in series [1] (sham-operated 9 month old mice, 1 mg/kg) is given as “did not have significant effect on articular cartilage”. Moreover, the “subchondral bone marrow lesions in knee joints” value in series [2] is listed as “significantly reduced”. The “distribution of β-gal+ MSC lineage cells in subchondral bone” value in series [3] is listed as “primarily distributed on bone surface”. Further, the “subchondral bone tissue volume (TV), μCT” value in series [4] (1 mg kg^−1) is given as “normalization of subchondral bone TV”; in series [4] (high doses 1, 2.5 and 5 mg/kg), “inhibited the increase in TV”. Also, the “degeneration of articular cartilage” value in series [4] (0.1 and 0.5 mg/kg, 2 months after ACLT) is “nor prevent the degeneration of articular cartilage”. Further, the “contrast signal in MRI perfusion analysis” value in series [4] (1 month post ACLT) is reported as “the increase was prevented”. In addition, the “expression of ALK5 in subchondral bone” value in series [4] (2 weeks post-surgery) was “the increase was inhibited”. Moreover, the “pSmad2/3+ cells in subchondral bone” value in series [4] (2 weeks post-surgery) is on record as “the increase was prevented”. Besides, the “expression level of ALK1 in subchondral bone” value in series [4] (2 weeks post-surgery, relative to sham) is listed as “remained unchanged”. Moreover, the “number of pSmad1+ cells in subchondral bone” value in series [4] (2 weeks post-surgery, relative to sham controls) is “remained relatively stable”. For the same compound, the subchondral bone structure result is recorded as “could rescue the bone structure” in series [4] (2.5 and 5 mg/kg daily i.p. for 30 days, ACLT mice); “improved subchondral bone structure” in series [4] (higher concentrations, beginning at 1 mg kg^−1). The “co-localization of osterix+ osteoprogenitors and TRAP+ osteoclasts” value in series [4] (14 and 30 days, immunostaining) is “co-localization of osterix and TRAP was seen”. In addition, the “increase of nestin+ MSCs in subchondral bone marrow” value in series [4] (30 days post-surgery, immunostaining) is listed as “prevented”. Also, the “CD31+ endothelial progenitors in subchondral bone” value in series [4] (ACLT mice) was “reduced”. Further, the “bone volume/tissue volume (BV/TV), μCT” value in series [4] (all doses, 30 and 60 days post ACLT) is “did not change BV/TV”. Moreover, the “bone marrow lesion in tibial subchondral bone” value in series [4] (micro-MRI, vs ACLT-vehicle treated mice) is listed as “obviously smaller in size”. The “increased number of osterix+ osteoprogenitor clusters in bone marrow” value in series [4] (one month post ACLT, vs vehicle) is “attenuated”. In series [4] (two months post-surgery, Catwalk system), the “gait analysis: disparity of maximum contact time (Maxcontactat %) of the two hind limbs” value was “rescued”. For the same compound, the “OARSI score of articular cartilage” value in series [4] (vs vehicle treated ACLT mice) is “protective effect”. The “uncoupled bone formation induced by high concentrations of active TGF-β1” value in series [5] is given as “rescue uncoupled bone formation”.
Take “TGF-β1: recombinant hTGF-β1 (R&D Systems) used to treat cultured MSCs”: the “dose giving maximal increase of phosphorylated Smad1/5/8” value in series [6] came to 5 ng/mL. For the same compound, in series [6] (low concentrations), the “phosphorylation of Smad2/3 and Smad1/5/8” value is recorded as “stimulated phosphorylation”.
